From patent US9796662B2 (priority 2010, dated 2017)

Structure (SMILES)	Emulsion stability, mL separation, 1 h, Adjuvant [mL]	Emulsion stability, mL separation, 1 h, Anionic [mL]	Emulsion stability, mL separation, 1 h, Nonionic [mL]	Emulsion stability, mL separation, 24 h, Adjuvant [mL]	Emulsion stability, mL separation, 24 h, Anionic [mL]	Emulsion stability, mL separation, 24 h, Nonionic [mL]
CC/C=C/CCCCCCCC(=O)OCC[N+](C)(C)C [C12-7, C12 DMEA Ester Quat]	0	0	0	0	0	0
C[N+](C)(C)CCOC(=O)CCCCCCC/C=C/CCCCCCCC(=O)OCC[N+](C)(C)C [Mix-16, C18 diMEA DiQuat]	0.25	0		0.25	0	
C=CCCCCCCCC(=O)OCC[N+](C)(C)C [C10-7, C10 DMEA Ester Quat]	0	0	0	0	0	0
